14 compounds from patent US8703957B2 (Janssen Pharmaceutica NV, priority 2001, dated 2014) can be followed below.

Assay [1] concerns the target T1, human neutrophil cathepsin G (Homo sapiens, UniProt P08311).
T1 construct: human neutrophil cathepsin G (Athens Research and Technology); purchased Athens Research and Technology; host or cells: human neutrophils (from the enzyme's name)
T1 sequence (P08311 21-243 limits assumed): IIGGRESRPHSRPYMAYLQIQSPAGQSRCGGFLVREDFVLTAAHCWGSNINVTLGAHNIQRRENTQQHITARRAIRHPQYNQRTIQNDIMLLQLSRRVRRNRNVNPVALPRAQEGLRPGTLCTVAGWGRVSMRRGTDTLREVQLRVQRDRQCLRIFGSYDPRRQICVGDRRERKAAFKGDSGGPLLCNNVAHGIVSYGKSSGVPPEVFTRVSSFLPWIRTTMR
Description: Enzyme-catalyzed hydrolysis assay, cathepsin G (chromogenic substrate Suc-Ala-Ala-Pro-Phe-pNa). Type of assay: biochemical. The conditions noted are these: 70 nM enzyme, 5 mM substrate, pH 7.4, 37° C., 30 minutes; read-out: IC50 (μM) CatG. As for the experimental part:
(§1) Enzyme-catalyzed hydrolysis rates were measured spectrophotometrically using human neutrophil cathepsin G (Athens Research and Technology) or human skin chymase (Cortex Biochem), a chromogenic substrate (Suc-Ala-Ala-Pro-Phe-pNa) (Bachem) in aqueous buffer (100 mM Hepes, 500 mM NaCl, pH 7.4 for catG; 450 mM Tris, 1800 mM NaCl, pH 8.0 for chymase), and a microplate reader (Molecular Devices). […] Percent inhibition was calculated by comparing the initial reaction slopes of the samples without inhibitor to those with inhibitor. IC50 values were determined using a four parameter fit logistics model. The term “NT” indicates a compound that was not tested.

The target in a further assay is T2, human skin chymase (Homo sapiens, UniProt P23946).
T2 construct: human skin chymase (Cortex Biochem); purchased Cortex Biochem; host or cells: human skin (from the enzyme's name)
T2 sequence (P23946 22-247): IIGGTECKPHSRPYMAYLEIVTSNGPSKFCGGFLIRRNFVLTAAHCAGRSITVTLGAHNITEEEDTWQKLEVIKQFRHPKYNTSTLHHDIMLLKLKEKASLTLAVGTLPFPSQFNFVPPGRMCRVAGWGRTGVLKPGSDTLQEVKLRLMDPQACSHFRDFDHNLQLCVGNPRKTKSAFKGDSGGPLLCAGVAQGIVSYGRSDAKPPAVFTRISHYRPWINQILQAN
Description: Enzyme-catalyzed hydrolysis assay, chymase (chromogenic substrate Suc-Ala-Ala-Pro-Phe-pNa). The format is biochemical. The following applies: 10 nM enzyme, 0.7 mM substrate, pH 8.0, 37° C., 30 minutes. As for the experimental part: as §1

`CN(C(=O)c1cc2ccccc2cc1C(=O)C(c1cccc2ccccc12)P(=O)(O)O)C1CCC(c2ccccc2)CC1` (centres unmarked) [Compound 1, [2-[3-[[methyl(4-phenylcyclohexyl)amino]carbonyl]-2-naphthalenyl]-1-(1-naphthalenyl)-2-oxoethyl]-phosphonic acid]: the IC50 turned out to be 0.083 ± 0.014 µM in assay [1] and 0.0053 ± 0.0019 µM against human skin chymase.
The matching figures for `CN(C(=O)c1cc2ccccc2cc1C(=O)C(c1cccc2ccccc12)P(=O)(O)O)C1CCN(C(=O)c2ccc3cc(Br)ccc3c2)CC1` (centres unmarked) [Compound 4]: 0.09 ± 0.02 µM and 0.0039 ± 0.0001 µM.
`CN(C(=O)c1cc2ccccc2cc1C(=O)C(c1cccc2ccccc12)P(=O)(O)O)C1CCN(C(=O)/C=C/c2ccccc2)CC1` (centres unmarked) [Compound 6, [2-[3-[[methyl[1-[(2E)-1-oxo-3-phenyl-2-propenyl]-4-piperidinyl]amino]carbonyl]-2-naphthalenyl]-1-(1-naphthalenyl)-2-oxoethyl]-phosphonic acid]: the values for the IC50 (in assay [1]; against human skin chymase) were 0.067 ± 0.014 µM and 0.0035 ± 0.0015 µM, respectively.
On the same counts, the results for `O=C(c1cc2ccccc2cc1C(=O)N1CCC(c2ccccc2)CC1)C(c1cccc2ccccc12)P(=O)(O)O` (centres unmarked) [Compound 7, [1-(1-naphthalenyl)-2-oxo-2-[3-[(4-phenyl-1-piperidinyl)carbonyl]-2-naphthalenyl]ethyl]-phosphonic acid] are 0.21 ± 0.05 µM and 0.008 ± 0.022 µM.
Turning to `O=C(c1cc2ccccc2cc1C(=O)N1CCC2(CC1)C(=O)NCN2c1ccccc1)C(c1cccc2ccccc12)P(=O)(O)O` (centres unmarked) [Compound 8, [1-(1-naphthalenyl)-2-oxo-2-[3-[(4-oxo-1-phenyl-1,3,8-triazaspiro[4.5]dec-8-yl)carbonyl]-2-naphthalenyl]ethyl]-phosphonic acid], the half-maximal inhibitory concentration (IC50) in assay [1] was determined as 0.13 ± 0.01 µM; against human skin chymase it was 0.0074 ± 0.0022 µM.
With `Cc1ccc(/C=C/C(=O)N2CCC(N(C)C(=O)c3cc4ccccc4cc3C(=O)C(c3cccc4ccccc34)P(=O)(O)O)CC2)cc1` (centres unmarked) [Compound 9, [2-[3-[[methyl[1-[(2E)-3-(4-methylphenyl)-1-oxo-2-propenyl]-4-piperidinyl]amino]carbonyl]-2-naphthalenyl]-1-(1-naphthalenyl)-2-oxoethyl]-phosphonic acid], the results for the IC50 (in assay [1]; against human skin chymase) were 0.053 ± 0.015 µM and 0.011 ± 0.003 µM, respectively.
As for `CN(C(=O)c1cc2ccccc2cc1C(=O)C(c1cccc2ccccc12)P(=O)(O)O)C1CCN(C(=O)c2ccccc2)CC1` (centres unmarked) [Compound 15], half-maximal inhibition against human skin chymase (IC50) was put at 0.017 ± 0.005 µM.
Consider `O=C(c1cc2ccccc2cc1C(=O)N1CCN(S(=O)(=O)c2ccc3ccccc3c2)CC1)C(c1cccc2ccccc12)P(=O)(O)O` (centres unmarked) [Compound 35], for which the IC50 in assay [1] was 0.56 ± 0.18 µM.
On to `O=C(c1cc2ccccc2cc1C(=O)N1CCN(C(=O)Cc2ccc3ccccc3c2)CC1)C(c1cccc2ccccc12)P(=O)(O)O` (centres unmarked) [Compound 37], for which, in assay [1], the IC50 worked out at 0.74 ± 0.29 µM.
Still for that read-out and setting: for `O=C(c1cc2ccccc2cc1C(=O)N1CCN(C(=O)c2ccc3ccccc3c2)CC1)C(c1cccc2ccccc12)P(=O)(O)O` (centres unmarked) [Compound 38] the value was 0.78 ± 0.22 µM; for `COc1ccc(N2CCN(C(=O)c3cc4ccccc4cc3C(=O)C(c3cccc4ccccc34)P(=O)(O)O)CC2)cc1` (centres unmarked) [Compound 40], 0.17 ± 0.05 µM.
On the same count and under the same terms, next, `O=C(NCc1ccc(S(=O)(=O)N2CCN(C(=O)c3cc4ccccc4cc3C(=O)C(c3cccc4ccccc34)P(=O)(O)O)CC2)s1)c1ccccc1` (centres unmarked) [Compound 41]: 0.31 µM.
In the case of `O=C(c1cc2ccccc2cc1C(=O)N1CCN(S(=O)(=O)c2c(Cl)nc3sccn23)CC1)C(c1cccc2ccccc12)P(=O)(O)O` (centres unmarked) [Compound 42], the half-inhibitory concentration (IC50) in assay [1] is 0.14 ± 0.03 µM.
As to `O=C(c1cc2ccccc2cc1C(=O)N1CCN(C(=O)Nc2ccc3ccccc3c2)CC1)C(c1cccc2ccccc12)P(=O)(O)O` (centres unmarked) [Compound 43], the IC50 in assay [1] was 0.95 ± 0.21 µM.

In general, IC50 refers to the point on the concentration scale where inhibition reaches its midpoint.
